Reference: BindingDB's records for doi:10.1016/j.bmcl.2005.07.040 (Universit&#233, 2005)

These compounds were tested against Sigma non-opioid intracellular receptor 1 (Cavia porcellus) (assay: Inhibitory concentration against opioid receptor sigma 1 of guinea pig cerebral cortex using [3H](+)-pentazocine upon incubation for 150 minutes at 22 degree C).

IC50 [nM] | Compound
6.6 | O=c1n(CCN2CCCCC2)c(O)c2n1Cc1ccccc1C2
77 | c1ccc2c(c1)C[C@H]1CN(CCN3CCCCC3)CN1C2 [(S)-2-(2-Piperidin-1-yl-ethyl)-1,2,3,5,10,10a-hexahydro-imidazo[1,5-b]isoquinoline]
> 1000 | O=c1n(CCN2CCCCC2)c(O)c2n1CCCC2 [(S)-2-(2-Piperidin-1-yl-ethyl)-tetrahydro-imidazo[1,5-a]pyridine-1,3-dione]
0.9 | Oc1c2n(c(=S)n1CCN1CCCCC1)Cc1ccccc1C2 [(S)-2-(2-Piperidin-1-yl-ethyl)-3-thioxo-2,3,10,10a-tetrahydro-5H-imidazo[1,5-b]isoquinolin-1-one]
54 | O=C1N(CCN2CCCCC2)C[C@@H]2Cc3ccccc3CN12 [(S)-2-(2-Piperidin-1-yl-ethyl)-1,5,10,10a-tetrahydro-2H-imidazo[1,5-b]isoquinolin-3-one]
